One experiment deals with NKCC2. More on the design: method as in ref Palfrey et al.[48]; Schlatter et al.[23]; Frelin et al.[49]; O’Grady et al.[50]; Glanville et al.[51]; Hannaert et al.[52]. Conditions: Rabbit kidney TAL; rat kidney TAL; NKCC2 isoforms not differentiated; ref Palfrey et al.[48]; Schlatter et al.[23]; Frelin et al.[49]; O’Grady et al.[50]; Glanville et al.[51]; Hannaert et al.[52]; cited from earlier work.

For another experiment, the target named is T1, hNKCC1A (Homo sapiens, UniProt P55011).
T1 construct: Full-length NKCC1 (NKCC1A) comprises ~1200 amino acids; expressed in transfected cells; host or cells: Xenopus laevis oocytes injected with cRNA (pXOOM vector)
T1 sequence (P55011 1-1212): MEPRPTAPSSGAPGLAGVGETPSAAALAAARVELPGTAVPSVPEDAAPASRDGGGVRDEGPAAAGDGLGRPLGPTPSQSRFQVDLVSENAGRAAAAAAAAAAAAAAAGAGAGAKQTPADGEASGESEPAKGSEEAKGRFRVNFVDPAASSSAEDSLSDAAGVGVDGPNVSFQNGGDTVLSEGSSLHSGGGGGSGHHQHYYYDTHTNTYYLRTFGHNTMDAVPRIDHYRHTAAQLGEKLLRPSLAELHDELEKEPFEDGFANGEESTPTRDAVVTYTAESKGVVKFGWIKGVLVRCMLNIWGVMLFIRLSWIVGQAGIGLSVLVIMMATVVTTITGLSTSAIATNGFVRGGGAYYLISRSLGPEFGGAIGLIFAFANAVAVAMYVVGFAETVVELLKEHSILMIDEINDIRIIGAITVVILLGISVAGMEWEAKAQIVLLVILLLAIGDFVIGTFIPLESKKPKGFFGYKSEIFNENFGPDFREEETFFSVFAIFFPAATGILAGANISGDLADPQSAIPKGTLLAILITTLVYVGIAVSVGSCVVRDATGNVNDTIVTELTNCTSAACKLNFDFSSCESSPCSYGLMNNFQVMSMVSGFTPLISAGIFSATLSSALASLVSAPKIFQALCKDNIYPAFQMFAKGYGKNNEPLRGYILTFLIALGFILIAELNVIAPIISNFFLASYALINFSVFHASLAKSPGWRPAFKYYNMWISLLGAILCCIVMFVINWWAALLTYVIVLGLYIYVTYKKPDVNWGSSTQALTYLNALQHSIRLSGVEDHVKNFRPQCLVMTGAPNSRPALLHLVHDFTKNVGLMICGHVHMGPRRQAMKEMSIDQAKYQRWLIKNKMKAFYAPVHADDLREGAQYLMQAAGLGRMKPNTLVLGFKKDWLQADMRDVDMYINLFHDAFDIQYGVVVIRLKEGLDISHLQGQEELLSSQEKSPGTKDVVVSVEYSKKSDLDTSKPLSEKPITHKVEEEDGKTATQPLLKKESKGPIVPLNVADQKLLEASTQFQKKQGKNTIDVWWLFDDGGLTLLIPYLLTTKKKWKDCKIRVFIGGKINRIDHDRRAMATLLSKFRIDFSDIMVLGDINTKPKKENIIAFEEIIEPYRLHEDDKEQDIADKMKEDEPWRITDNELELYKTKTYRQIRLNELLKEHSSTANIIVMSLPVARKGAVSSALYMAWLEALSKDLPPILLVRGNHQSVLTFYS
The experiment in a line: 86Rb+ uptake in hNKCC1A-expressing Xenopus laevis oocytes. It counts as cell-based. The note with it: 86Rb+ uptake, Xenopus oocytes, 5 min, corrected for uninjected oocytes; median and range of 3–7 experiments.

The next experiment relates to NKCC1. Conditions: Activated state; isoforms not differentiated; turkey erythrocytes; mIMCD-K2 cells; chick cardiac cells; winter flounder intestine; rat erythrocytes and thymocytes; ref Palfrey et al.[48]; Schlatter et al.[23]; Frelin et al.[49]; O’Grady et al.[50]; Glanville et al.[51]; Hannaert et al.[52]; cited from earlier work.
The subject of the next experiment is hNKCC2 isoform A. Conditions: Xenopus oocytes; ref Payne et al.[57]; Isenring et al.[58]; Plata et al.[59]; Carota et al.[56]; Lykke et al.[60]; Lykke et al.[29]; read-out: IC50 (µM) NKCC2 (hA); cited from earlier work.
The next experiment deals with mNKCC2 isoform B. More on the design: method as in ref Payne et al.[57]; Isenring et al.[58]; Plata et al.[59]; Carota et al.[56]; Lykke et al.[60]; Lykke et al.[29]. The note with it: Xenopus oocytes; ref Payne et al.[57]; Isenring et al.[58]; Plata et al.[59]; Carota et al.[56]; Lykke et al.[60]; Lykke et al.[29]; read-out: IC50 (µM) NKCC2 (mB); cited from earlier work.

A further experiment relates to mNKCC2 isoform F. More on the design: method as in ref Payne et al.[57]; Isenring et al.[58]; Plata et al.[59]; Carota et al.[56]; Lykke et al.[60]; Lykke et al.[29]. The note with it: Xenopus oocytes; ref Payne et al.[57]; Isenring et al.[58]; Plata et al.[59]; Carota et al.[56]; Lykke et al.[60]; Lykke et al.[29]; read-out: IC50 (µM) NKCC2 (mF); cited from earlier work.

The next experiment relates to mNKCC2 isoform A. More on the design: method as in ref Payne et al.[57]; Isenring et al.[58]; Plata et al.[59]; Carota et al.[56]; Lykke et al.[60]; Lykke et al.[29]. Conditions: Xenopus oocytes; ref Payne et al.[57]; Isenring et al.[58]; Plata et al.[59]; Carota et al.[56]; Lykke et al.[60]; Lykke et al.[29]; read-out: IC50 (µM) NKCC2 (mA); cited from earlier work.
In another experiment the test system is hNKCC1. The note with it: HEK-293 cells; activated state; NKCC1 isoforms not differentiated; ref Payne et al.[57]; Isenring et al.[58]; Plata et al.[59]; Carota et al.[56]; Lykke et al.[60]; Lykke et al.[29]; cited from earlier work.
The subject of a further experiment is hNKCC2 isoform F. The note with it: Xenopus oocytes; ref Payne et al.[57]; Isenring et al.[58]; Plata et al.[59]; Carota et al.[56]; Lykke et al.[60]; Lykke et al.[29]; read-out: IC50 (µM) NKCC2 (hF); cited from earlier work.

Molecules are shown by their SMILES.

For one molecule, IC50 results are on record in paper PMC6026185 (Scientific Reports, 2018).

Description for hNKCC1A: The oocytes were kept in Kulori medium (in mM: 90 NaCl, 1 KCl, 1 CaCl2, 1 MgCl2, 5 Hepes, pH 7.4, 182 mOsm) for 5–6 days at 19 °C prior to experiments.
To activate NKCC1A and NKCC1B prior to the ^86Rb^+ uptake measurements aimed at measuring NKCC-mediated fluxes, hNKCC1A- or hNKCC1B-expressing oocytes or uninjected control oocytes (4–13 oocytes per well) were pre-incubated for 30 min at room temperature in a K^+-free solution (containing in mM: 5 choline chloride, 95 NaCl, 1 MgCl2, 1 CaCl2, 10 Hepes, pH 7.4, 207 mOsm), which causes shrinkage of the oocyte and thus activation of NKCC1A[22]. […] The radioactivity was determined by liquid scintillation β-counting with Aquasafe 300 Plus scintillation cocktail (Zinsser Analytic GmbH, Frankfurt, Germany) using a Microbeta Trilux (Perkin Elmer). hNKCC1-mediated K^+ uptake was assessed as ([fluxNKCC1-expressing oocytes in presence of x µM drug]−[fluxuninjected oocytes in presence of x µM drug]), in order to correct for endogenous NKCC activity. […]
Significance of differences in transport activity of hNKCC1A or hNKCC1B expressing oocytes vs. uninjected oocytes were analyzed by the Kruskal-Wallis test followed by Dunn’s multiple comparisons test. […]

As usually defined, the IC50 is the concentration that gives 50% inhibition. `CCCCNc1cc(C(=O)O)cc(S(N)(=O)=O)c1Oc1ccccc1` [Bumetanide]: the IC50 with NKCC2 is 0.2 to 0.33 µM; on hNKCC1A it was 0.945 µM; with NKCC1 it was 0.25 to 0.6 µM; in the experiment on hNKCC2 isoform A it was 0.54 to 4 µM; with mNKCC2 isoform B, 0.6 µM; with mNKCC2 isoform F, 3.4 µM. The IC50 with mNKCC2 isoform A was 2 µM; with hNKCC1 it was 0.16 to 0.28 µM; in the experiment with hNKCC2 isoform F, 0.16 µM.
